Results: patent US5462868A (priority 1991, dated 1995)
Where two headings read alike, the source gives them in different places.

What was measured:
cocaine esterase [1] = type: biochemical, Pseudomonas maltophilia MB11L; conditions: 1 mM inhibitor; for % ACTIVITY RELATIVE TO CONTROL: preincubated 30° C. 10 min, 2 mM cocaine, 0.9 U/ml=100% activity; for inhibition of cocaine esterase activity (in words): 30° C., 10 min
Procedure: (§1) The reaction was stopped by the addition of 10 μl of concentrated phosphoric acid and protein pelleted at 13,000 rpm in a minifuge. The amount of benzoic acid produced was determined by HPLC analysis of 50 μl of the supernatant and comparison to standard samples (0-1 mM) treated identically. Standard curves of peak height plotted against benzoic acid concentration were linear over the range 0-1 mM. Controls containing no enzyme solution were run to allow for background hydrolysis. An assay was considered invalid if no cocaine remained at the end of the assay (seen by HPLC). One unit of esterase activity is defined as the amount of enzyme required to produce 1 μmol of benzoic acid in 1 min at 30° C.
The possible inhibitors tested were phenylmethylsulphonyl fluoride (PMSF), eserine, para-hydroxymercuribenzoate (pHMB), benzoate and ecgonine methyl ester.

cocaine esterase [2] = type: biochemical, Pseudomonas maltophilia MB11L; conditions: for Km: read-out: Apparent Km
Procedure: as §1
Reactions were stopped using concentrated phosphoric acid (10 μl) to precipitate protein, which was removed by centrifugation at 13,000 rpm in a Microfuge. Rates of substrate hydrolysis were calculated from HPLC analyses of the incubations. Non-enzymic rates of hydrolysis were calculated from control samples containing no enzyme, and the enzyme assays corrected accordingly. Standard samples of the relevant free acids were used to calibrate each assay. […] Lineweaver-Burke and Eadie-Hofstee plots were used to obtain these values (see Fersht, 1985, Enzyme Structure and Mechanism, 2nd Edition, Publishers: W. H. Freeman & Co., Oxford for methods).

[3] = Screen of esterases for activity against cocaine (HPLC); type: biochemical; conditions: 2 mM cocaine in 50 mM buffer of pH suited for maximum enzyme activity
[4] = Specific activity of esterases against their usual substrate; type: biochemical; conditions: usual substrate of each enzyme
Procedure: Control incubations containing no enzyme were performed under each set of conditions to allow accurate assaying of enzyme activity.

[5] = purified cocaine esterase, 50 mM bis-tris-propane buffer pH 8.0, 30° C., 10 min, mean values

O=C(O)c1ccccc1 [Benzoate, benzoate]
% ACTIVITY RELATIVE TO CONTROL (cocaine esterase [1]): 92%

COC(=O)[C@H]1[C@@H](OC(=O)c2ccccc2)C[C@@H]2CC[C@H]1N2C [Cocaine]
Apparent Vmax (cocaine esterase [2]; [5]): 29.5 U/mg
Km (cocaine esterase [2]; [5]): 360 µM

COC(=O)[C@@H]1[C@H]2CC[C@@H](C[C@@H]1O)N2C [Ecgonine methyl ester, ecgonine methyl ester]
% ACTIVITY RELATIVE TO CONTROL (cocaine esterase [1]): 82%

CNC(=O)Oc1ccc2c(c1)[C@]1(C)CCN(C)[C@@H]1N2C [Eserine, eserine]
inhibition of cocaine esterase activity (in words) (cocaine esterase [1]): relatively ineffective
% ACTIVITY RELATIVE TO CONTROL (cocaine esterase [1]): 95%

CCOC(=O)c1ccccc1O [Ethyl 2-hydroxycenzoate]
Km (cocaine esterase [2]; [5]): 1750 µM

CCOC(=O)c1cccc(O)c1 [Ethyl 3-hydroxybenzoate]
Apparent Km (cocaine esterase [2]; [5]): No activity
Apparent Vmax (cocaine esterase [2]; [5]): No activity

CCOC(=O)c1ccc(O)cc1 [Ethyl 4-hydroxybenzoate]
Apparent Km (cocaine esterase [2]; [5]): No activity
Apparent Vmax (cocaine esterase [2]; [5]): No activity

CCOC(=O)c1ccccc1 [Ethyl benzoate]
Apparent Vmax (cocaine esterase [2]; pH 8): 65.0 U/mg
Km (cocaine esterase [2]; pH 8): 1890 µM

O=S(=O)(F)Cc1ccccc1 [PMSF, phenylmethylsulphonyl fluoride]
inhibition of cocaine esterase activity (in words) (cocaine esterase [1]): total inactivation
% ACTIVITY RELATIVE TO CONTROL (cocaine esterase [1]): 0%

O=C(O)c1cc[c]([Hg][OH])cc1 [pHMB, para-hydroxymercuribenzoate]
inhibition of cocaine esterase activity (in words) (cocaine esterase [1]): relatively ineffective
% ACTIVITY RELATIVE TO CONTROL (cocaine esterase [1]): 86%

Electric eel acetyl-cholinesterase: commercially available esterase enzyme
SPECIFIC ACTIVITY (U/mg) AGAINST COCAINE [3]: 0 U/mg
SPECIFIC ACTIVITY (U/mg) AGAINST USUAL SUBSTRATE [4]: 320 U/mg

Horse serum butyryl-cholinesterase: commercially available esterase enzyme
SPECIFIC ACTIVITY (U/mg) AGAINST COCAINE [3]: 0.098 U/mg
SPECIFIC ACTIVITY (U/mg) AGAINST USUAL SUBSTRATE [4]: 14 U/mg

B1: Porcine pancreatic lipase: commercially available esterase enzyme (protein, UniProt P00591 1-450, looked up)
Pancreatic triacylglycerol …: SEVCFPRLGCFSDDAPWAGIVQRPLKILPWSPKDVDTRFLLYTNQNQNNYQELVADPSTITNSNFRMDRKTRFIIHGFIDKGEEDWLSNICKNLFKVESVNCICVDWKGGSRTGYTQASQNIRIVGAEVAYFVEVLKSSLGYSPSNVHVIGHSLGSHAAGEAGRRTNGTIERITGLDPAEPCFQGTPELVRLDPSDAKFVDVIHTDAAPIIPNLGFGMSQTVGHLDFFPNGGKQMPGCQKNILSQIVDIDGIWEGTRDFVACNHLRSYKYYADSILNPDGFAGFPCDSYNVFTANKCFPCPSEGCPQMGHYADRFPGKTNGVSQVFYLNTGDASNFARWRYKVSVTLSGKKVTGHILVSLFGNEGNSRQYEIYKGTLQPDNTHSDEFDSDVEVGDLQKVKFIWYNNNVINPTLPRVGASKITVERNDGKVYDFCSQETVREEVLLTLNPC
SPECIFIC ACTIVITY (U/mg) AGAINST COCAINE [3]: 0 U/mg
SPECIFIC ACTIVITY (U/mg) AGAINST USUAL SUBSTRATE [4]: 50 U/mg
